The subject of one assay is A375. The assay can be described thus: LDH cell viability assay, melanoma cells. Format: cell-based. Particulars: Homo sapiens, A-375; for IC50: A375, 24 h, LDH assay. The procedure: (§1) Normal prostate epithelial cells (PNT2), two prostate cancer cell lines (Du145 and PC3), human keratinocytes (HaCaT), two melanoma cell lines (A375 and HTB140) and two colon cancer cell lines (HT29 and Caco-2) were treated with 3 at a concentration range 1.0–50.0 µg/mL. Viability of the cells was estimated using lactate dehydrogenase (LDH) assay.
(§2) Cytotoxic activity of 3 was tested on human cancer and normal cells, grouped in three panels: prostate, skin and gastrointestinal. The prostate panel comprised prostate cancer cell lines DU145 (ATCC HTB-81) and PC3 (ATCC CRL-1435) and prostate normal epithelial cells PNT2 (ECACC 95012613). Melanoma cell lines A375 (ATCC CRL-1619) and HTB140 (ATCC Hs 294T) together with human keratinocytes HaCaT (obtained as a kind gift of Prof. Marta Michalik, Department of Cell Biology, Jagiellonian University) were included in the skin panel. Two colon cancer cell lines, namely Caco-2 (ATCC HTB-37) and HT29 (ATCC HTB-38), constituted the gastrointestinal panel. Du145 cells were grown in a modified Eagle’s medium with low (1.0 g/L) glucose concentration; HT29, PC3 and PNT-2 cells were grown in Dulbecco’s modified Eagle’s medium (DMEM) and F12 HAM Nutrient Mixture; Caco-2 cells were grown in modified Eagle’s medium with nonessential amino acids (NEAA); and melanoma cells and keratinocytes were maintained in modified Eagle’s medium with high (4.5 g/L) glucose concentration. The culture media contained antibiotics and 10% fetal bovine serum (FBS). All cultures were maintained at 37 °C in a humidified, 5% CO2-containing atmosphere.
(§3) The examined compound (3) was diluted in the culture media from freshly made stock solution in MeOH (10 mg/mL) to the working concentrations (from 0 to 50 μg/mL). Cell viability was determined as described previously. […] Then, the culture medium was replaced with the medium containing different concentrations of the assessed compound (1–50 μg/mL). After 24 h of incubation, the viability of the cells was determined using colorimetric lactate dehydrogenase (LDH) assay in comparison to the controls to which corresponding aliquots of MeOH diluted with culture media were added. Cells grown in the medium without the tested compound were used as control I (negative), and the positive control (control II) was obtained by incubation of the cells in the medium containing 1% Triton X-100. LDH released from the damaged cells into the cell culture medium was quantified by measuring the absorbance at 490 nm using a Synergy II Biotek microplate reader. Cytotoxicities of the examined compounds were calculated as follows: ((absorbance of the tested sample−absorbance of control I)/(absorbance of control II−absorbance of control I)) × 100. Results were means of three independent measurements (± SD). Doxorubicin (Ebewe Pharma G.m.b.H., Unterach, Austria) was used as a reference cytostatic drug.

In the next assay the test system is HTB140. The assay can be described thus: LDH cell viability assay, melanoma cells. As to conditions: Homo sapiens; for IC50: HTB140, 24 h, LDH assay. Format: cell-based. The procedure:
as §1, §2, §3

Setting [1] is: value in parentheses, read-out: IC50 (IC50 µM) (converted).

Read-outs that look alike come from different tables or passages of the source.

For `C=C1C(=O)O[C@H]2[C@H]1[C@@H](O)[C@H](OC(=O)CC(C)C)[C@H](C)CCC(=O)[C@](C)(O)[C@@H]2OC(=O)C(C)C` [Compound 3], the viability (commonly a read-out of living cells in per cent, often relative to untreated cells) at 1 µg/mL with A375 (A375, 1 µg/mL, 24 h, read-out: Cell Viability (%) ± SD) is 64.2 ± 1.13%; in the assay with HTB140 (HTB140, 1 µg/mL, 24 h, read-out: Cell Viability (%) ± SD), 81.4 ± 1.28%. In addition, the viability at 3 µg/mL in the assay with A375 (A375, 3 µg/mL, 24 h, read-out: Cell Viability (%) ± SD) worked out at 55.4 ± 1.44%; in the assay on HTB140 (HTB140, 3 µg/mL, 24 h, read-out: Cell Viability (%) ± SD), 70.8 ± 2.37%. The viability at 5 µg/mL came to 43.8 ± 1.69% in the assay on A375 (A375, 5 µg/mL, 24 h, read-out: Cell Viability (%) ± SD) and 50.9 ± 1.8% in the assay on HTB140 (HTB140, 5 µg/mL, 24 h, read-out: Cell Viability (%) ± SD). Also, the viability at 10 µg/mL came out at 33 ± 2.3% in the assay with A375 (A375, 10 µg/mL, 24 h, read-out: Cell Viability (%) ± SD) and 21.5 ± 2.53% with HTB140 (HTB140, 10 µg/mL, 24 h, read-out: Cell Viability (%) ± SD). Besides, the viability at 20 µg/mL in the assay with A375 (A375, 20 µg/mL, 24 h, read-out: Cell Viability (%) ± SD) stood at 7.09 ± 1.78%; with HTB140 (HTB140, 20 µg/mL, 24 h, read-out: Cell Viability (%) ± SD), 4.1 ± 1.75%. In addition, the viability at 30 µg/mL with A375 (A375, 30 µg/mL, 24 h, read-out: Cell Viability (%) ± SD) came out at 0.82 ± 0.65%; in the assay with HTB140 (HTB140, 30 µg/mL, 24 h, read-out: Cell Viability (%) ± SD), 0.59 ± 0.78%. Besides, the viability at 50 µg/mL in the assay on A375 (A375, 50 µg/mL, 24 h, read-out: Cell Viability (%) ± SD) amounted to 0%; with HTB140 (HTB140, 50 µg/mL, 24 h, read-out: Cell Viability (%) ± SD) it was 0%. For the same molecule, the IC50 – broadly, the concentration at which inhibition is half-maximal – in the assay with A375 (setting [1]) was 20.4 µM; with A375 (read-out: IC50), 9.57 ± 0.87 µg/mL; in the assay with HTB140 (setting [1]) it was 13.6 µM; in the assay with HTB140 (read-out: IC50) it was 6.36 ± 0.38 µg/mL.

For the origin of these results see article PMC8347481, “Germacranolides from Carpesium divaricatum: Some New Data on Cytotoxic and Anti-Inflammatory Activity” (Molecules, 2021).
